How the values were obtained:
Aβ16-30-specific T cells = assay: Proliferation of Aβ16-30-specific T cells with alanine/glycine-substituted peptides; type: cell-based, human; conditions: for T-cell proliferation, average cpm: 72 hr
Text: Because the T-cell epitopes were most frequently localized to Aβ16-30, we further mapped this epitope for each of its constituent amino acids by using alanine-substituted peptides in the T-cell proliferation assay (the naturally occurring alanines at positions 21 and 30 were changed to glycines). […] Substitution of lysine-16, alanine-21, serine-26 or aspargine-27 increased T-cell proliferation by more than 2-fold (Table 4).
In this experiment, T cells specific to Aβ16-30 were stimulated in the presence of alanine/glycine substituted peptides and autologous PBMCs. T-cell proliferation was measured by [^3H]-thymidine incorporation 72 hr after stimulation. Numbers represent average cpm of each antigen concentration tested (average cpm in the absence of antigen was 911).
(§1) T-cell lines were then supplemented with 10 μg/ml IL-2 after 48 hours and every 2 days thereafter until they were completely resting. T-cell proliferation was measured 72 hours after stimulation following a 12 hr incubation with [^3H]-thymidine. Supernatants were collected 48 hr after T-cell stimulation, and antigen-induced cytokine production was measured by sandwich ELISA. Recommended pairs of antibodies (coating and detecting) for IL-10 (R&D, Minneapolis, Minn.), INF-γ. Endogen, Woburn, Mass.), IL-13 (PharMingen, (San Diego, Calif.), and TGF-β (Promega, Madison, Wis.) were used according to the manufacturer's instructions. Surface and intracellular staining was performed on Aβ-reactive T-cells after stimulation. All antibodies were purchased from BD Biosciences (San Diego, Calif.) and staining was performed according to the manufacturer's instructions.

[1] = system: Aβ1-42-reactive T-cell lines; assay: Epitope mapping / proliferation of Aβ1-42-reactive T-cell lines; type: cell-based, human
Method: Epitope specificity of these 3 T-cell lines using 5 overlapping peptides within Aβ15-42 was further investigated.
as §1

[2] = system: popliteal draining lymph nodes (PLN) T cells; assay: Lymph node T-cell proliferation after immunization of mice with Aβ in CFA; type: cell-based, mouse; conditions: SJL mice immunized with rodent Aβ1-42
[3] = lines from 24 subjects, fine mapping with 15 amino acid overlapping peptides

Phe 20 Ala: Aβ16-30 peptide with phenylalanine-20 substituted by alanine (KLVFAAEDVGSNKGA; Amyloid-beta protein 42; UniProt P05067 687-701, looked up, variant F20A)
T-cell proliferation, average cpm (Aβ16-30-specific T cells; Peptide 0.1 μg/ml): 1188 cpm
T-cell proliferation, average cpm (Aβ16-30-specific T cells; Peptide 1 μg/ml): 2239 cpm
T-cell proliferation, average cpm (Aβ16-30-specific T cells; Peptide 10 μg/ml): 4216 cpm
effect of substitution on T-cell proliferation (Aβ16-30-specific T cells; at all 3 concentrations used): blocked or significantly decreased

Asn 27 Ala: Aβ16-30 peptide with asparagine-27 substituted by alanine (KLVFFAEDVGSAKGA; Amyloid-beta protein 42; UniProt P05067 687-701, looked up, variant N27A)
T-cell proliferation, average cpm (Aβ16-30-specific T cells; Peptide 0.1 μg/ml): 23636 cpm
T-cell proliferation, average cpm (Aβ16-30-specific T cells; Peptide 1 μg/ml): 36588 cpm
T-cell proliferation, average cpm (Aβ16-30-specific T cells; Peptide 10 μg/ml): 34983 cpm

Gly 29 Ala: Aβ16-30 peptide with glycine-29 substituted by alanine (KLVFFAEDVGSNKAA; Amyloid-beta protein 42; UniProt P05067 687-701, looked up, variant G29A)
T-cell proliferation, average cpm (Aβ16-30-specific T cells; Peptide 0.1 μg/ml): 622 cpm
T-cell proliferation, average cpm (Aβ16-30-specific T cells; Peptide 1 μg/ml): 3014 cpm
T-cell proliferation, average cpm (Aβ16-30-specific T cells; Peptide 10 μg/ml): 14513 cpm
effect of substitution on T-cell proliferation (Aβ16-30-specific T cells; only at 0.1 or 1 μg/ml): inhibitory effects

Phe 19 Ala: Aβ16-30 peptide with phenylalanine-19 substituted by alanine (KLVAFAEDVGSNKGA; Amyloid-beta protein 42; UniProt P05067 687-701, looked up, variant F19A)
T-cell proliferation, average cpm (Aβ16-30-specific T cells; Peptide 0.1 μg/ml): 986 cpm
T-cell proliferation, average cpm (Aβ16-30-specific T cells; Peptide 1 μg/ml): 4354 cpm
T-cell proliferation, average cpm (Aβ16-30-specific T cells; Peptide 10 μg/ml): 17943 cpm
effect of substitution on T-cell proliferation (Aβ16-30-specific T cells; only at 0.1 or 1 μg/ml): inhibitory effects

Aβ19-33: nested Aβ peptide, residues 19-33 (FFAEDVGSNKGAIIG)
location of T-cell epitopes ([1]; T-cell line DRB1 1501/1101, 5 overlapping peptides within Aβ15-42): mainly located

Asp 23 Ala: Aβ16-30 peptide with aspartic acid-23 substituted by alanine (KLVFFAEAVGSNKGA; Amyloid-beta protein 42; UniProt P05067 687-701, looked up, variant D23A)
T-cell proliferation, average cpm (Aβ16-30-specific T cells; Peptide 0.1 μg/ml): 1145 cpm
T-cell proliferation, average cpm (Aβ16-30-specific T cells; Peptide 1 μg/ml): 1685 cpm
T-cell proliferation, average cpm (Aβ16-30-specific T cells; Peptide 10 μg/ml): 612 cpm
effect of substitution on T-cell proliferation (Aβ16-30-specific T cells; at all 3 concentrations used): blocked or significantly decreased

Lys 28 Ala: Aβ16-30 peptide with Lys 28 substituted by alanine (KLVFFAEDVGSNAGA; Amyloid-beta protein 42; UniProt P05067 687-701, looked up, variant K28A)
T-cell proliferation, average cpm (Aβ16-30-specific T cells; Peptide 0.1 μg/ml): 5050 cpm
T-cell proliferation, average cpm (Aβ16-30-specific T cells; Peptide 1 μg/ml): 15475 cpm
T-cell proliferation, average cpm (Aβ16-30-specific T cells; Peptide 10 μg/ml): 29156 cpm

Ala 30 Gly: Aβ16-30 peptide with alanine 30 changed to glycine (KLVFFAEDVGSNKGG; Amyloid-beta protein 42; UniProt P05067 687-701, looked up, variant A30G)
T-cell proliferation, average cpm (Aβ16-30-specific T cells; Peptide 0.1 μg/ml): 2123 cpm
T-cell proliferation, average cpm (Aβ16-30-specific T cells; Peptide 1 μg/ml): 12027 cpm
T-cell proliferation, average cpm (Aβ16-30-specific T cells; Peptide 10 μg/ml): 15395 cpm

Gly 25 Ala: Aβ16-30 peptide with Gly 25 substituted by alanine (KLVFFAEDVASNKGA; Amyloid-beta protein 42; UniProt P05067 687-701, looked up, variant G25A)
T-cell proliferation, average cpm (Aβ16-30-specific T cells; Peptide 0.1 μg/ml): 2426 cpm
T-cell proliferation, average cpm (Aβ16-30-specific T cells; Peptide 1 μg/ml): 13763 cpm
T-cell proliferation, average cpm (Aβ16-30-specific T cells; Peptide 10 μg/ml): 24979 cpm

Aβ8-22: Aβ peptide, residues 8-22 (SGYEVHHQKLVFFAE; Amyloid-beta protein 42; UniProt P05067 679-693, looked up, fragment)
T-cell proliferation across the peptide series Aβ7-21 to Aβ10-24 [2]: gradual increase

Glu 22 Ala: Aβ16-30 peptide with glutamic acid-22 substituted by alanine (KLVFFAADVGSNKGA; Amyloid-beta protein 42; UniProt P05067 687-701, looked up, variant E22A)
T-cell proliferation, average cpm (Aβ16-30-specific T cells; Peptide 0.1 μg/ml): 1145 cpm
T-cell proliferation, average cpm (Aβ16-30-specific T cells; Peptide 1 μg/ml): 840 cpm
T-cell proliferation, average cpm (Aβ16-30-specific T cells; Peptide 10 μg/ml): 517 cpm
effect of substitution on T-cell proliferation (Aβ16-30-specific T cells; at all 3 concentrations used): blocked or significantly decreased

Lys 16 Ala: Aβ16-30 peptide with lysine-16 substituted by alanine (ALVFFAEDVGSNKGA; Amyloid-beta protein 42; UniProt P05067 687-701, looked up, variant K16A)
T-cell proliferation, average cpm (Aβ16-30-specific T cells; Peptide 0.1 μg/ml): 5357 cpm
T-cell proliferation, average cpm (Aβ16-30-specific T cells; Peptide 1 μg/ml): 22304 cpm
T-cell proliferation, average cpm (Aβ16-30-specific T cells; Peptide 10 μg/ml): 36456 cpm

Ala 21 Gly: Aβ16-30 peptide with alanine 21 changed to glycine (KLVFFGEDVGSNKGA; Amyloid-beta protein 42; UniProt P05067 687-701, looked up, variant A21G)
T-cell proliferation, average cpm (Aβ16-30-specific T cells; Peptide 0.1 μg/ml): 12901 cpm
T-cell proliferation, average cpm (Aβ16-30-specific T cells; Peptide 1 μg/ml): 29634 cpm
T-cell proliferation, average cpm (Aβ16-30-specific T cells; Peptide 10 μg/ml): 36448 cpm

Val 18 Ala: Aβ16-30 peptide with Val 18 substituted by alanine (KLAFFAEDVGSNKGA; Amyloid-beta protein 42; UniProt P05067 687-701, looked up, variant V18A)
T-cell proliferation, average cpm (Aβ16-30-specific T cells; Peptide 0.1 μg/ml): 7216 cpm
T-cell proliferation, average cpm (Aβ16-30-specific T cells; Peptide 1 μg/ml): 17427 cpm
T-cell proliferation, average cpm (Aβ16-30-specific T cells; Peptide 10 μg/ml): 26814 cpm

Ser 26 Ala: Aβ16-30 peptide with serine-26 substituted by alanine (KLVFFAEDVGANKGA; Amyloid-beta protein 42; UniProt P05067 687-701, looked up, variant S26A)
T-cell proliferation, average cpm (Aβ16-30-specific T cells; Peptide 0.1 μg/ml): 18808 cpm
T-cell proliferation, average cpm (Aβ16-30-specific T cells; Peptide 1 μg/ml): 36287 cpm
T-cell proliferation, average cpm (Aβ16-30-specific T cells; Peptide 10 μg/ml): 38335 cpm

Leu 17 Ala: Aβ16-30 peptide with Leu 17 substituted by alanine (KAVFFAEDVGSNKGA; Amyloid-beta protein 42; UniProt P05067 687-701, looked up, variant L17A)
T-cell proliferation, average cpm (Aβ16-30-specific T cells; Peptide 0.1 μg/ml): 2242 cpm
T-cell proliferation, average cpm (Aβ16-30-specific T cells; Peptide 1 μg/ml): 11805 cpm
T-cell proliferation, average cpm (Aβ16-30-specific T cells; Peptide 10 μg/ml): 24480 cpm

Val 24 Ala: Aβ16-30 peptide with valine-24 substituted by alanine (KLVFFAEDAGSNKGA; Amyloid-beta protein 42; UniProt P05067 687-701, looked up, variant V24A)
T-cell proliferation, average cpm (Aβ16-30-specific T cells; Peptide 0.1 μg/ml): 944 cpm
T-cell proliferation, average cpm (Aβ16-30-specific T cells; Peptide 1 μg/ml): 6160 cpm
T-cell proliferation, average cpm (Aβ16-30-specific T cells; Peptide 10 μg/ml): 19869 cpm
effect of substitution on T-cell proliferation (Aβ16-30-specific T cells; only at 0.1 or 1 μg/ml): inhibitory effects

Aβ28-42: nested Aβ peptide, residues 28-42 (KGAIIGLMVGGVVIA; Amyloid-beta protein 42; UniProt P05067 699-713, looked up, fragment)
Distribution of Aβ T-cell epitopes: Number of T-cell lines [1, 3]: 5
Distribution of Aβ T-cell epitopes: percent [1, 3]: 20%

Source: patent publication US20050123553A1, “Amyloid beta-peptide and methods of use” (priority 2003, published 2005)
